# Test results taken from patent publication US10669267B2, “Substituted N-[2-(4-phenoxypiperidin-1-yl)-2-(1,3-thiazol-5-yl)ethyl]benzamide and N-[2-(4-benzyloxypiperidin-1-yl)-2-(1,3-thiazol-5-yl)ethyl]benzamide derivatives P2X7 receptor antagonists” (Axxam S.P.A., priority 2016, dated 2020).
# Like-named read-outs stand apart in the source and are kept apart here.
# Columns and labels:
# human P2X7 channel = human P2X7 channel (Homo sapiens (Human), UniProt Q99572); test: human P2X7 channel assay by automated patch-clamp (QPatch16X), BzATP-evoked current; type: cell-based; details: HEK-293 cells expressing P2X7, whole-cell voltage clamp, 100 microM BzATP, holding -80 mV; read-out: hP2X7 (IC50; nM)
# Procedure: In order to directly monitor the block of P2X7 channel, an electrophysiological assay was developed and implemented on the QPatch16X automated electrophysiology instrument.
# HEK-293 cells expressing the P2X7 channels were cultured in modified EMEM.
# 72 hours before experiment, 5 million cells were seeded onto T225 flasks. Just before the experiment cells were washed twice, detached from the flask with trypsin-EDTA, re-suspended in the suspension solution and placed on the QPatch 16x.
# The compounds (20 mM in a 100% DMSO) stored at −20° C. were prepared the day of the experiment (a first dilution 1:20 in 100% DMSO to prepare a 1 mM stock solution, then a 1 microM solution in external solution+a serial dilution 1:10).
# The standard whole-cell voltage clamp experiments were performed at room temperature. For these experiments the multihole technology was used and the data were sampled at 2 KHz.
# After establishment of the seal and the passage in the whole cell configuration, the cells were held at −80 mV. The P2XR7 current was evoked by applying 100 microM of BzATP alone (4 times) and then in the presence increasing concentrations of the compound under investigation (1, 10, 100 and 1000 nM).
# The pre-incubation periods 5 to 8 contain increasing concentrations of the compound of interest (1, 10, 100 and 1000 nM), as illustrated in FIGURE.
# The maximal inward current evoked by BzATP in absence or presence of increasing concentrations of the compounds under investigation was measured and normalized.
# Y: normalized response, 100% down to 0%, decreasing as X increases.
# LogIC50: same log units as X
# HillSlope: slope factor or HS, unitless
# rat P2X7R = rat P2X7R (Rattus norvegicus (Rat), UniProt Q64663); test: rat P2X7 Ca2+ influx, Screen Quest Fluo-8 No Wash Calcium Assay Kit (FLIPR TETRA); type: cell-based; details: read-out: rP2X7 (IC50; nM)
# Procedure: Ca^2+ influx was measured in HEK-293 cells stably transfected with the receptor using Screen Quest™ Fluo-8 No Wash Calcium Assay Kit (AAt Bioquest®). Briefly, once inside the cells, the lipophilic blocking groups of Fluo-8 are cleaved by non-specific cell esterases, resulting in a negatively-charged fluorescent-dye that stays inside cells. Its fluorescence increases upon binding to calcium. When HEK-293/P2X7 cells were stimulated with BzATP, Ca^2+ entered the cells and the fluorescence of Fluo-8 NW increaseed.
# To routinely test the compounds, HEK-293 cells stably transfected with rat P2X7R were seeded overnight in growth medium at 10000, 15000 or 20000 cells/well in 384-well plate, according to the level of response after thawing. 24 hours later, the medium was removed and the cells were pre-loaded at RT for 1 hour with 20 μL/w of Fluo-8 NW prepared in Tyrode 0.3 mM Ca^2+/Mg^2+-free.
# Compounds were tested at […] according to the following method: • first injection at […] of 10 μL of 3× test compound (in Tyrode's buffer 0.3 mM Ca^2+/Mg^2+-free+DMSO 0.5% final concentration) • 5′ incubation • second injection at […] of 15 µL of 3× BzATP at ˜ECK) (in Tyrode's buffer 0.3 mM Ca^2+/Mg^2+-free+BSA 0.0003% final concentration) • Fluorescence recording for 3′
# Between one plate and the following, tips were extensively washed with water, then with 100% DMSO and finally with water to avoid carry-over inside the tips.
# The effect of the test compounds was measured as percent inhibition vs a reference antagonist and IC50 values were calculated accordingly.
# [1] = Table 4, HEK-293 cells stably transfected with rat P2X7R, BzATP stimulation
# [2] = Table 5, comparison with Compound 59 of WO2015118019
# Sequence of human P2X7 channel (Q99572 whole entry): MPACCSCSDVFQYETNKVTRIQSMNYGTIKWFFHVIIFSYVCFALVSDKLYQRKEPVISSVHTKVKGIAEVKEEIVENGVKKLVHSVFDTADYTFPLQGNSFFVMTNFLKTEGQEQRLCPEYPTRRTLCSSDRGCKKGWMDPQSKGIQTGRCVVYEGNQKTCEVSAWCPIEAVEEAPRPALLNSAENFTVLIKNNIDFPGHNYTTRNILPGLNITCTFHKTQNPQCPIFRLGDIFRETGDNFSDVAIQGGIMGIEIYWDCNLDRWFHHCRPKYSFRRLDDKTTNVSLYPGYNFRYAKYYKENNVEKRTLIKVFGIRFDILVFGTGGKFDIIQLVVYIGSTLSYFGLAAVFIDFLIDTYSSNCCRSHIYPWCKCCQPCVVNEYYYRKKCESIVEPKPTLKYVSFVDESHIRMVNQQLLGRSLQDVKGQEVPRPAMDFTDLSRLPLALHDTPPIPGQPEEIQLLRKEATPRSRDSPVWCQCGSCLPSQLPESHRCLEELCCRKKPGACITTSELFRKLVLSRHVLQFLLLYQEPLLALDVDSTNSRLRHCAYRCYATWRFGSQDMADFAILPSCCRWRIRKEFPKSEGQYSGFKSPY
# Sequence of rat P2X7R (Q64663 whole entry): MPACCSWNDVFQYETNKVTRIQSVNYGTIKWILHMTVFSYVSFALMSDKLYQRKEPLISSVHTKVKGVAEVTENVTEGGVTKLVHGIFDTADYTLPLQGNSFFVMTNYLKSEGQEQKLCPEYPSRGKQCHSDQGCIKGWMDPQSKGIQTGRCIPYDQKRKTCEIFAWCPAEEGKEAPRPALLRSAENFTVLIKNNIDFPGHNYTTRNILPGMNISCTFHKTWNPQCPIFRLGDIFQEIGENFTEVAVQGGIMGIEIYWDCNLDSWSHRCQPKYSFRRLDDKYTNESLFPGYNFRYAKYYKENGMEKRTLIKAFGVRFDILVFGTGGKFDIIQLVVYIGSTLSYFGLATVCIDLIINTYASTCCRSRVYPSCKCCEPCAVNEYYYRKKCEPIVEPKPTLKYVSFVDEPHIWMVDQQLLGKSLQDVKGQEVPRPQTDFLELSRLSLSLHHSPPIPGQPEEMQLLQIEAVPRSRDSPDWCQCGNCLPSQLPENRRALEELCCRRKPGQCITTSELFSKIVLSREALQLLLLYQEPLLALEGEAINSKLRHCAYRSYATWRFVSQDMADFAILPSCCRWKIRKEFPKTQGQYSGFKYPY
SMILES,IC50 (human P2X7 channel),IC50 (rat P2X7R; [1]),IC50 (rat P2X7R; [2])
"Cc1ncsc1C(CNC(=O)c1c(F)cccc1Cl)N1CCC(Oc2ccc(F)cc2)CC1 (stereo not drawn) [Compound 7, 2-chloro-6-fluoro-N-{2-[4-(4-fluorophenoxy)piperidin-1-yl]-2-(4-methyl-1,3-thiazol-5-yl)ethyl}benzamide]",51.5 nM,709 nM,
"Cc1ncsc1C(CNC(=O)c1cccc2ncccc12)N1CCC(Oc2cccc(F)c2)CC1 (stereo not drawn) [Compound 21, N-{2-[4-(3-fluorophenoxy)piperidin-1-yl]-2-(4-methyl-1,3-thiazol-5-yl)ethyl}quinoline-5-carboxamide]",26.4 nM,268 nM,268 nM
"Cc1ncsc1C(CNC(=O)c1cccc2ncccc12)N1CCC(OCc2ccc(Cl)cc2)CC1 (stereo not drawn) [Compound 14, N-(2-{4-[(4-chlorophenyl)methoxy]piperidin-1-yl}-2-(4-methyl-1,3-thiazol-5-yl)ethyl)quinoline-5-carboxamide]",,1120 nM,
"Cc1ncsc1C(CNC(=O)c1cccc2ncccc12)N1CCC(OCc2ccc(F)c(F)c2)CC1 (stereo not drawn) [Compound 18, N-(2-{4-[(3,4-difluorophenyl)methoxy]piperidin-1-yl}-2-(4-methyl-1,3-thiazol-5-yl)ethyl)quinoline-5-carboxamide]",36.9 nM,374 nM,
"Cc1ncsc1C(CNC(=O)c1cccc2ncccc12)N1CCC(Oc2ccc(Cl)cc2)CC1 (stereo not drawn) [Compound 20, N-{2-[4-(4-chlorophenoxy)piperidin-1-yl]-2-(4-methyl-1,3-thiazol-5-yl)ethyl}quinoline-5-carboxamide]",,808 nM,
"Cc1ncsc1C(CNC(=O)c1cccc2ncccc12)N1CCC(OCc2cc(F)cc(F)c2)CC1 (stereo not drawn) [Compound 17, N-(2-{4-[(3,5-difluorophenyl)methoxy]piperidin-1-yl}-2-(4-methyl-1,3-thiazol-5-yl)ethyl)quinoline-5-carboxamide]",32.9 nM,432 nM,
"Cc1ncsc1C(CNC(=O)c1c(F)cccc1Cl)N1CCC(Oc2ccc(Cl)cc2)CC1 (stereo not drawn) [Compound 8, 2-chloro-N-{2-[4-(4-chlorophenoxy)piperidin-1-yl]-2-(4-methyl-1,3-thiazol-5-yl)ethyl}-6-fluorobenzamide]",,1310 nM,
"Cc1ncsc1C(CNC(=O)c1c(F)cccc1Cl)N1CCC(OCc2ccc(Cl)cc2)CC1 (stereo not drawn) [Compound 2, 2-chloro-N-(2-{4-[(4-chlorophenyl)methoxy]piperidin-1-yl}-2-(4-methyl-1,3-thiazol-5-yl)ethyl)-6-fluorobenzamide]",,971 nM,
"Cc1ncsc1C(CNC(=O)c1c(F)cccc1Cl)N1CCC(OCc2ccc(F)cc2)CC1 (stereo not drawn) [Compound 1, 2-chloro-6-fluoro-N-(2-{4-[(4-fluorophenyl)methoxy]piperidin-1-yl)-2-(4-methyl-1,3-thiazol-5-yl}ethyl)benzamide]",45 nM,1040 nM,
"Cc1ncsc1C(CNC(=O)c1c(F)cccc1Cl)N1CCC(OCc2ccc(F)c(F)c2)CC1 (stereo not drawn) [Compound 6, 2-chloro-N-(2-{4-[(3,4-difluorophenyl)methoxy]piperidin-1-yl}-2-(4-methyl-1,3-thiazol-5-yl)ethyl)-6-fluorobenzamide]",,1160 nM,
"Cc1ncsc1C(CNC(=O)c1cccc2ncccc12)N1CCC(OCc2ccccc2F)CC1 (stereo not drawn) [Compound 16, N-(2-{4-[(2-fluorophenyl)methoxy]piperidin-1-yl}-2-(4-methyl-1,3-thiazol-5-yl)ethyl)quinoline-5-carboxamide]",,762 nM,

# Next, values leading:
IC50 (human P2X7 channel),IC50 (rat P2X7R; [1]),IC50 (rat P2X7R; [2]),SMILES
57.9 nM,201 nM,201 nM,"Cc1ncsc1C(CNC(=O)c1cccc2ncccc12)N1CCC(Oc2ccc(F)c(F)c2)CC1 (stereo not drawn) [Compound 24, N-{2-[4-(3,4-difluorophenoxy)piperidin-1-yl]-2-(4-methyl-1,3-thiazol-5-yl)ethyl}quinoline-5-carboxamide]"
,323 nM,,"O=C(NCC(c1scnc1C(F)F)N1CCC(Oc2ccc(Cl)cc2)CC1)c1cccc2ncccc12 (stereo not drawn) [Compound 35, N-{2-[4-(4-chlorophenoxy)piperidin-1-yl]-2-[4-(difluoromethyl)-1,3-thiazol-5-yl]ethyl}quinoline-5-carboxamide]"
,1210 nM,,"O=C(NCC(c1scnc1C(F)F)N1CCC(OCc2ccc(F)c(F)c2)CC1)c1c(F)cccc1Cl (stereo not drawn) [Compound 27, 2-chloro-N-{2[4-(difluoromethyl)-1,3-thiazol-5-yl]-2-{4-[(3,4-difluorophenyl)methoxy]piperidin-1-yl}ethyl}-6-fluorobenzamide]"
,631 nM,,"Cc1ncsc1C(CNC(=O)c1cccc2ncccc12)N1CCC(Oc2cc(F)cc(F)c2)CC1 (stereo not drawn) [Compound 23, N-{2-[4-(3,5-difluorophenoxy)piperidin-1-yl]-2-(4-methyl-1,3-thiazol-5-yl)ethyl}quinoline-5-carboxamide]"
43.2 nM,133 nM,133 nM,"O=C(NCC(c1scnc1C(F)F)N1CCC(Oc2ccccc2F)CC1)c1cccc2ncccc12 (stereo not drawn) [Compound 37, N-{2-[4-(difluoromethyl)-1,3-thiazol-5-yl]-2-[4-(2-fluorophenoxy)piperidin-1-yl]ethyl}quinoline-5-carboxamide]"
,458 nM,,"O=C(NCC(c1scnc1C(F)F)N1CCC(Oc2cc(F)cc(F)c2)CC1)c1c(F)cccc1Cl (stereo not drawn) [Compound 31, 2-chloro-N-{2-[4-(difluoromethyl)-1,3-thiazol-5-yl]-2-[4-(3,5-difluorophenoxy)piperidin-1-yl]ethyl}-6-fluorobenzamide]"
,295 nM,,"O=C(NCC(c1scnc1C(F)F)N1CCC(Oc2cccc(F)c2)CC1)c1cccc2ncccc12 (stereo not drawn) [Compound 36, N-{2-[4-(difluoromethyl)-1,3-thiazol-5-yl]-2-[4-(3-fluorophenoxy)piperidin-1-yl]ethyl}quinoline-5-carboxamide]"
,578 nM,,"O=C(NCC(c1scnc1C(F)F)N1CCC(OCc2cc(F)cc(F)c2)CC1)c1c(F)cccc1Cl (stereo not drawn) [Compound 26, 2-chloro-N-{2-[4-(difluoromethyl)-1,3-thiazol-5-yl]-2-{4-[(3,5-difluorophenyl)methoxy]piperidin-1-yl}ethyl}-6-fluorobenzamide]"
,216 nM,,"O=C(NCC(c1scnc1C(F)F)N1CCC(Oc2cc(F)cc(F)c2)CC1)c1cccc2ncccc12 (stereo not drawn) [Compound 38, N-{2-[4-(difluoromethyl)-1,3-thiazol-5-yl]-2-[4-(3,5-difluorophenoxy)piperidin-1-yl]ethyl}quinoline-5-carboxamide]"
,252 nM,,"O=C(NCC(c1scnc1C(F)F)N1CCC(OCc2ccccc2F)CC1)c1c(F)cccc1Cl (stereo not drawn) [Compound 25, 2-chloro-N-{2-[4-(difluoromethyl)-1,3-thiazol-5-yl]-2-{4-[(2-fluorophenyl)methoxy]piperidin-1-yl}ethyl}-6-fluorobenzamide]"
,251 nM,,"O=C(NCC(c1scnc1C(F)F)N1CCC(OCc2ccccc2F)CC1)c1cccc2ncccc12 (stereo not drawn) [Compound 32, N-{2-[4-(difluoromethyl)-1,3-thiazol-5-yl]-2-{4-[(2-fluorophenyl)methoxy]piperidin-1-yl}ethyl}quinoline-5-carboxamide]"
,2020 nM,,"O=C(NCC(c1scnc1C(F)F)N1CCC(Oc2ccc(Cl)cc2)CC1)c1c(F)cccc1Cl (stereo not drawn) [Compound 28, 2-chloro-N-{2-[4-(4-chlorophenoxy)piperidin-1-yl]-2-[4-(difluoromethyl)-1,3-thiazol-5-yl]ethyl}-6-fluorobenzamide]"
